In article PMC6915869, “Immunosuppressive effects of a novel potassium channel toxin Ktx-Sp2 from Scorpiops Pocoki” (Cell & Bioscience, 2019):
“Also recorded” adds a separate entry of the source. Bridge positions count the residues as written; N and C are the ends. Peptide text beside a SMILES is read from it.

Key:
[1] = target: T1, mKv1.1 (Mus musculus, UniProt P16388); assay: Whole-cell patch-clamp, exogenous Kv1.1 in HEK293T cells; assay type: cell-based
T1 construct: expressed in transfected cells; host or cells: HEK293T, vector pIRES2-EGFP (bicistronic, EGFP not fused)
Experimental: (§1) Mouse spinal columns were removed and placed in ice cold HBSS, then laminectomies were performed and bilateral DRG were dissected out. After removal of connective tissues, DRG were transferred to a 1 ml Ca^2+/Mg^2+-free HBSS containing 2 μl saturated NaHCO3, 0.35 mg L-cysteine and 20 U papain (Worthington, Lakewood, NJ, USA), and incubated at 37 °C for 10 min. The suspension of DRG was centrifuged, the supernatant was removed, 1 ml Ca^2+/Mg^2+-free HBSS containing 4 mg collagenase type II and 1.25 mg dispase type II (Worthington) was added and incubated at 37 °C for 10 min. After digestion, neurons were pelleted, suspended in neurobasal medium containing 2% B-27 supplement, 1% L-glutamine, 100 U/ml penicillin plus 100 μg/ml streptomycin, and 50 ng/ml nerve growth factor, plated on a 12 mm coverslip coated with poly-L-lysine (10 μg/ml) and cultured under a humidified atmosphere of 5% CO2/95% air at 37 °C for 18–24 h before use. Jurkat E6-1 T cells (ATCC TIB152) and HEK293T cells (ATCC ACS4500) were maintained in RPMI medium 1640 (Invitrogen, Carlsbad, CA, USA) and Dulbecco’s modified Eagle’s medium (DMEM) (Life Technologies,GrandIsland, NY, USA), supplemented with 10% fetal bovine serum (Life Technologies), 100 units/ml penicillin, 100 μg/ml streptomycin, respectively. Cells were cultured in a humidified incubator at 37 °C with 5% CO2. The cDNAs encoding mKv1.1, mKv1.2, mKv1.3, mNav1.4, mNav1.5 and mNav1.7 were subcloned into the XhoI/BamHI sites of a bicistronic vector, pIRES2-EGFP (Clontech, USA), then transiently transfected into HEK293-T cells using Lipofectamine 2000 (Invitrogen) for electrophysiological experiments.
Whole-cell patch-clamp recordings were performed using an EPC 9 amplifier (HEKA Elektronik, Lambrecht/Pfalz, Germany) at room temperature (22–24 °C). Pipettes pulled from borosilicate glass (BF 150-86-10; Sutter Instrument Company, Novato, CA, USA) had resistances of 2–4 MΩ when filled with the internal solution. […]

[2] = system: IL-2 secretion from Jurkat T cells; assay: IL-2 secretion from ConA-activated Jurkat T cells (ELISA); assay type: cell-based, human; conditions: ConA 10 μg/ml; for ConA-induced IL-2 secretion (in words): Ktx-Sp2 10 nM, 100 nM, 1 μM and 10 μM, 24 h, ELISA at 450 nm, n = 6, ***P < 0.0001
Experimental: IL-2 secretion from Jurkat T cells was measured using an ELISA kit (eBioscience, San Diego, CA, USA) following manufacturer’s instructions. Cells were centrifuged at 1500 rpm for 10 min, and the supernatants were collected to measure IL-2 concentrations. Reactions were performed in 96-well plates coated with the capture antibody and stopped with phosphoric acid (1 M). Absorbance was measured at 450 nm. Each experiment was repeated at least three times in duplicate.
The cytokine IL-2 is predominantly secreted from activated T cells and is critical in regulating the balance between immune tolerance and autoimmunity. The secretion of IL-2 is driven by a rise of [Ca^2+]i. Since Ktx-Sp2 potently suppresses Kv1.3 function and decreases Ca^2+ influx in Jurkat T cells we next asked whether Ktx-Sp2 could inhibit IL-2 secretion, which should result in functional immunosuppression. As a classical polyclonal stimulator acting through T-cell receptor complex (TCR)-CD3 complex, ConA has been used to induce T cell activation and stimulate IL-2 secretion, which is dependent on an increase of [Ca^2+]i. We thus used the ConA-stimulated IL-2 secretion in the growth media as readout.
Fig. 6 Ktx-Sp2 inhibits IL-2 secretion from activated Jurkat T cells. The concentrations of IL-2 in cell growth media were measured by ELISA. Jurkat T cells were activated by ConA (10 μg/ml) for 24 h. Ktx-Sp2 (10 nM, 100 nM, 1 μM and 10 μM) were added simultaneously with ConA. ***P < 0.0001, n = 6

[3] = system: endogenous sodium channels expressed by DRG neurons; assay: Whole-cell patch-clamp, endogenous sodium channels of DRG neurons; assay type: cell-based, mouse; conditions: 1 μM; +10 mV 100 ms pulse from -60 mV every 10 s
Experimental: as §1, with “The cDNAs encoding mKv1.1, mKv1.2, mKv1.3, mNav1.4, mNav1.5 and mNav1.7 were subcloned into the XhoI/BamHI sites of a bicistronic vector, pIRES2-EGFP (Clontech, USA), then transiently transfected into HEK293-T cells using Lipofectamine 2000 (Invitrogen) for electrophysiological experiments.” left out

[4] = target: T2, endogenous Kv1.3 expressed by human Jurkat T cells (Homo sapiens, UniProt P22001); assay: Whole-cell patch-clamp, endogenous Kv1.3 in Jurkat T cells; assay type: cell-based
T2 construct: endogenous Kv1.3 expressed by human Jurkat T cells; host or cells: Jurkat E6-1 T cells
Experimental: as §1
Whole-cell patch-clamp recordings were performed using an EPC 9 amplifier (HEKA Elektronik, Lambrecht/Pfalz, Germany) at room temperature (22–24 °C). Pipettes pulled from borosilicate glass (BF 150-86-10; Sutter Instrument Company, Novato, CA, USA) had resistances of 2–4 MΩ when filled with the internal solution. The internal pipette solution for recording Kv currents contained: KCl 140 mM, MgCl2 1 mM, EGTA 1 mM, Na2ATP 3 mM, HEPES 10 mM (pH 7.3 with KOH); for recording Na currents contained: CsCl 100 mM, CsF 40 mM, MgCl2 2 mM, HEPES 10 mM, EGTA 10 mM, D-Glucose 10 mM, Na2ATP 3 mM (pH 7.3 with CsOH). The external solution for recording Kv currents contained: KCl 5 mM, NaCl 140 mM, HEPES 10 mM, CaCl2 2 mM, MgCl2 1 mM, D-Glucose 10 mM (pH 7.4 with NaOH); for recording Na currents contained: NaCl 132 mM, KCl 5.4 mM, CaCl2 1.8 mM, MgCl2 0.8 mM, HEPES 10 mM, D-Glucose 5 mM (pH 7.4 with NaOH). Kv currents were elicited by + 50 mV, 400 ms depolarizing pulse from the holding potential of − 60 mV every 20 s, and Na currents were elicited by + 10 mV, 100 ms depolarizing pulse from the holding potential of − 60 mV every 10 s. […]

T1 sequence (P16388 whole entry, the tested form may be a part): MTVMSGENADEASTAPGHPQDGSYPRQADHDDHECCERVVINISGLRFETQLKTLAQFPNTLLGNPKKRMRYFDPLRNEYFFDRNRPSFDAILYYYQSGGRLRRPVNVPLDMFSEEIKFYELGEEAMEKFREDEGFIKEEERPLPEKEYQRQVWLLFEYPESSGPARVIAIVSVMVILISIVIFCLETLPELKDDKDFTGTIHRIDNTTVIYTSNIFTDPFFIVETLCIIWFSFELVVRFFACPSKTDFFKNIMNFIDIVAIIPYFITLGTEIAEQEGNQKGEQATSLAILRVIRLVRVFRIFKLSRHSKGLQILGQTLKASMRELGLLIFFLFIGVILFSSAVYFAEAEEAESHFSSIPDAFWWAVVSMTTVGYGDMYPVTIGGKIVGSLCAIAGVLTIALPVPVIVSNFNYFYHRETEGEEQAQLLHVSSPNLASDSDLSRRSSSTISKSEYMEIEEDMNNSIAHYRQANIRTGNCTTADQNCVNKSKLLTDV
T2 sequence (P22001 whole entry): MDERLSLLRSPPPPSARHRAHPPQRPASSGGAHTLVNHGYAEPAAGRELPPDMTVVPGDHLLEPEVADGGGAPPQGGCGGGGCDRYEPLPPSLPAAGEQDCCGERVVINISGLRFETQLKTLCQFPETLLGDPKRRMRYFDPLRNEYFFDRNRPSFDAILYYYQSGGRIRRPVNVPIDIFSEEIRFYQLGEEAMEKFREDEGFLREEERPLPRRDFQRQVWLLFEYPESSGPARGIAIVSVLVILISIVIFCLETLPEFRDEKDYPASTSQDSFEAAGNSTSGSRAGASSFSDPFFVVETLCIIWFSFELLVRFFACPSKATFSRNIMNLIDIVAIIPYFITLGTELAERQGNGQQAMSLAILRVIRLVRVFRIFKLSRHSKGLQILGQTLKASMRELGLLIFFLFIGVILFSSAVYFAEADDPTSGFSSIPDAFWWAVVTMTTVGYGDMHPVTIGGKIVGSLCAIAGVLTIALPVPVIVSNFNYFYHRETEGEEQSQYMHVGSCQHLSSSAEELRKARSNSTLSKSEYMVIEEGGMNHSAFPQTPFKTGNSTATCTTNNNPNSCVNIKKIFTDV

Q: How did the IC50 ([1]; +50 mV 400 ms pulse from -60 mV every 20 s, room temperature (22–24 °C), mean ± SEM) turn out when `CSCC[C@@H]1NC(=O)[C@@H]2CSSC[C@H](NC(=O)[C@H](CCCCN)NC(=O)[C@H](C)NC(=O)CNC(=O)[C@H](Cc3c[nH]cn3)NC(=O)[C@H](CC(C)C)NC(=O)[C@@H]3CCCN3C(=O)[C@@H](N)CO)C(=O)N[C@@H](CO)C(=O)N[C@@H](CO)C(=O)N[C@@H](CO)C(=O)N[C@@H](CC(N)=O)C(=O)N[C@@H](CCC(N)=O)C(=O)N[C@H]3CSSC[C@H](NC(=O)[C@H](CCCNC(=N)N)NC(=O)CNC(=O)[C@H](CC(N)=O)NC1=O)C(=O)N[C@@H](CCCNC(=N)N)C(=O)N[C@H](C(=O)N[C@@H](Cc1ccc(O)cc1)C(=O)NCC(=O)O)CSSC[C@H](NC(=O)[C@@H]1CCCN1C(=O)[C@H](CCCNC(=N)N)NC(=O)[C@H]([C@@H](C)O)NC3=O)C(=O)N[C@@H](CCCNC(=N)N)C(=O)N[C@@H](Cc1ccc(O)cc1)C(=O)NCC(=O)NCC(=O)NCC(=O)N[C@@H]([C@@H](C)O)C(=O)N[C@@H](Cc1c[nH]cn1)C(=O)NCC(=O)N[C@@H](CCCCN)C(=O)N2` [Ktx-Sp2] (H-SPLHGAKCSSSNQCTRPCRYGGGTHGKCMNGRCRCYG-OH; disulfide 8-28, 14-33, 18-35 (inferred); N-terminus and C-terminus assumed) was run?
A: The IC50 was 485 ± 25.5 nM.

Q: And the “blocking activity on Kv1.3 relative to Kv1.1 (Discussion)” value ([1]; Discussion section)?
A: Its value is 33 times.

Q: And the “blocking of Kv1.1 (in words)” value ([1]; exogenous channel)?
A: Its value is “effectively block”.

Q: What about the “activation of Jurkat T cells (in words)” value [2] of the same compound?
A: Its value is “inhibit the activation of Jurkat T cells”.

Q: What about the “activation of Jurkat T cells (in words)” value ([2]; listed as Ktx-sp2) of the same compound?
A: The value was “inhibiting the activation effect of ConA on Jurkat T cells”.

Q: And the “ConA-induced IL-2 secretion (in words)” value [2]?
A: Its value is “reduce the release of inflammatory cytokines IL-2; also recorded: significantly reduced ConA-induced IL-2 secretion in a concentration-dependent manner”.

Q: And the “ConA-induced IL-2 secretion (in words)” value ([2]; listed as Ktx-sp2)?
A: Its value is “significantly reducing the release of inflammatory cytokine IL-2”.

Q: What about the “effect on endogenous sodium channels of DRG neurons” value [3] of the same compound?
A: Its value is “almost had no effect”.

Q: And the “blocking of endogenous Kv1.3 in Jurkat T cells (in words)” value [4]?
A: The value was “effectively block endogenous Kv1.3; also recorded: equivalent to the exogenous expression Kv1.3 on the HEK293T cell membrane”.

Q: And the “reduction of Kv1.3 current” value ([4]; 30 nM, bath application, n = 5, +50 mV 400 ms pulse from -60 mV, almost zero cytosolic Ca^2+)?
A: Its value is “about 50%”.

Q: What about the IC50 ([4]; +50 mV 400 ms pulse from -60 mV, almost zero cytosolic Ca^2+, currents normalized to control, Hill equation, read-out: IC50 for Kv1.3 current in Jurkat T cells) of the same compound?
A: The IC50 was 29.1 ± 1.12 nM.

Q: What about the “reversibility of suppressive effect on Kv1.3 current after washout” value ([4]; bath application, washout) of the same compound?
A: Its value is “partially reversible after washout”.
